# Experimental data as given in patent US11298367B2, “Prodrugs of substituted triazole derivatives and uses thereof” (Bayer Aktiengesellschaft, priority 2017, dated 2022).
# Where two headings read alike, the source gives them in different places.
# Assays:
# human V1a receptor [1] = target: T1, human V1a receptor (Homo sapiens, UniProt P37288); assay: Cellular in vitro assay for vasopressin receptor activity (V1a, aequorin luminescence); format: cell-based; settings: selectivity ratio hV2/hV1a
# T1 construct: expressed in transfected cells; host or cells: CHO K1 (Chinese hamster ovary), also stably transfected with a modified aequorin
# T1 sequence (P37288 whole entry): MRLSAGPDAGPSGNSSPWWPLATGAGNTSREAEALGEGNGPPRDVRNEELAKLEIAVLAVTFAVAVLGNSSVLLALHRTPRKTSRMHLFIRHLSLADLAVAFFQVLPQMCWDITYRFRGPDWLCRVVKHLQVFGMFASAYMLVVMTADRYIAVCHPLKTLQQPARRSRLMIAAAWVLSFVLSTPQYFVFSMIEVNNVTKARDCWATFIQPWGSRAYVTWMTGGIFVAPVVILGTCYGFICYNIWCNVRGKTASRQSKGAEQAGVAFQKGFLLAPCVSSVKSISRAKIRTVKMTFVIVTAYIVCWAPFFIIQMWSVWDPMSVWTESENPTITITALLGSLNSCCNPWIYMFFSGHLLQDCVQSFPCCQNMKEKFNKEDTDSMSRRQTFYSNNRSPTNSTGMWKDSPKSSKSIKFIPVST
# human V1a receptor [2] = target: T1, human V1a receptor; assay: Cellular in vitro assay for verification of prodrug conversion into drug (with/without alkaline phosphatase); format: cell-based; settings: human V1a CHO cells
# Experimental: B-4. Cellular In Vitro Assay for Verification of Prodrug Conversion into Drug
# To verify the conversion of prodrugs into the respective drugs, the prodrugs are incubated with and without alkaline phosphatase. Cleavage of the phosphate moiety by alkaline phosphatase converts the prodrug into the underlying respective drug [Coleman J. E., Annu. Rev. Biophys. Biomol. Struct. 1992, 21, 441-483]. As prodrug and underlying respective drug show different IC50 values, the value of the prodrug after alkaline phosphatase treatment resembles the IC50 of the respective drug. The determination of IC50 values of compounds of the invention at the human V1a receptor is carried out using a recombinant cell line. The cell line originally derives from a hamster's ovary epithelial cell (Chinese Hamster Ovary, CHO K1, ATCC: American Type Culture Collection, Manassas, Va. 20108, USA). The test cell line constitutively expresses the human V1a receptor. Cells are also stably transfected with a modified form of the calcium-sensitive photoprotein aequorin which, after reconstitution with the cofactor coelenterazine, emits light upon increase in free calcium concentration [Rizzuto R, Simpson A W, Brini M, Pozzan T, Nature 358, 325-327 (1992); Illarionov B A, Bondar V S, Illarionova V A, Vysotski E S, Gene 153 (2), 273-274 (1995)]. The resulting vasopressin receptor cell reacts to stimulation of the recombinantly expressed V1a receptor by intracellular release of calcium ions, which can be quantified by the resulting luminescence of photoprotein. The bioluminescence of the cell line is detected using a suitable luminometer [Milligan G, Marshall F, Rees S, Trends in Pharmacological Sciences 17, 235-237 (1996)].
# On the day before the assay, the cells are seeded in culture medium (DMEM/F12, 2% FCS, 2 mM glutamine, 10 mM HEPES, 5 μg/ml coelenterazine) in 384-well microtiter plates and kept in a cell incubator (96% humidity, 5% v/v CO2, 37C). On the day of the assay, 100 μl of test compounds at a concentration of 100 μM are incubated for 15 minutes with 500 units alkaline phosphatase at 37° C. in tyrode buffer (20 mM HEPES, 130 mM NaCl, 5 mM KCl, 5 mM NaHCO3, 2 mM MgCl2, pH 7,4). After incubation compounds are immediately diluted and placed for 10 minutes at 37° C. on the before seeded V1a cells. For detection of antagonistic activity of the compounds [Arg^8]-vasopressin at EC50 concentration is added and the resulting light signal is measured immediately in a luminometer.
# Solubility = format: physicochemical; settings: 24 h room temperature, max. 500 μg/ml; for solubility at 24 h: thermodynamic from solid
# Experimental: For each substance 0.5-0.6 mg are weighed exactly. In each case, sufficient medium is added to the sample in such a way that a concentration of c=500 μg/ml is obtained. This sample solution is shaken for 24 h at room temperature and 1400 rpm.
# A further sample weight of 0.5-0.6 mg is required for the DMSO calibration solution. This sample is filled with DMSO to a concentration of c=600 μg/ml. Two calibration solutions are prepared from this stock solution. In a 2 ml HPLC vial, 1000 μl of DMSO are initially introduced and 34.4 μl of the stock solution are pipetted (c=20 µg/ml). […] of this solution (c=20 μg/ml) are placed in a further 2 ml HPLC vial containing 500 μl of DMSO (c=2.5 μg/ml).
# After shaking the test solutions, 230 μl of the supernatant are transferred into a centrifuge tube and centrifuged at 42 000 rpm (223 000 g) for 30 min. 180 μl of the supernatant are then taken and each diluted with DMSO (1:5 sample 1; 1:100 sample 2), and transferred to HPLC vials. The two calibration solutions and the dilute sample solutions are analyzed by HPLC. Quantification is performed over the corresponding peak areas.
# Distilled water; trifluoroacetic acid (Merck; 1.08262.0100); acetonitrile (HPLC grade); DMSO (Merck; 8.02912.2500).
# Fluka buffer, Order No. 33643 (11.76 g citric acid, 2.57 g sodium chloride and 2.72 g sodium hydroxide).
# Fluka buffer, Order No. 33646 (3.52 g potassium dihydrogenphosphate, 7.26 g sodium hydrogen phosphate).
# Solution of 6.18 g sodium chloride and 3.96 g sodium dihydrogen phosphate in 1 L distilled water, adjust with 1M aqueous sodium hydroxide solution to pH 7.4.
# 0.6057 g TRIS was dissolved in 95 ml water, adjust to pH 8.5 with aqueous hydrochloric acid, fill with water until 100 ml volume is reached.
# [3] = pre-incubation 15 min with 500 units alkaline phosphatase at 37° C., read-out: IC50 with AP
# [4] = without alkaline phosphatase, read-out: IC50 without AP
# [5] = Tris buffer pH 8.5, pH 8.5, aqueous buffer, pH = 8.5 Tris buffer
Compound,ratio IC50 hV2/hV1a (human V1a receptor [1]),IC50 (human V1a receptor [2]; [3]) [nM],IC50 (human V1a receptor [2]; [4]) [nM],solubility at 24 h (Solubility; [5]) [µg/mL],Solubility (Solubility; pH = 4 citrate buffer),Solubility (Solubility; pH = 7.0 buffer),"solubility at 24 h (Solubility; citrate buffer pH 4, pH 4, aqueous buffer, pH = 4 citrate buffer) [µg/mL]","solubility at 24 h (Solubility; phosphate buffer pH 7, pH 7, aqueous buffer, pH = 7.0 buffer) [µg/mL]"
"NC(=O)c1nc(Cn2nc(-c3ccc(Cl)cc3)n(C[C@H](O)C(F)(F)F)c2=O)nn1-c1ccccc1C(F)(F)F [Example 6A, 3-({3-(4-Chlorophenyl)-5-oxo-4-[(2S)-3,3,3-trifluoro-2-hydroxypropyl]-4,5-dihydro-1H-1,2,4-triazol-1-yl}methyl)-1-[2-(trifluoromethyl)phenyl]-1H-1,2,4-triazole-5-carboxamide]",41.4,1.35,1.35,4.3,not detectable,not detectable,,
"NC(=O)c1nc(Cn2nc(-c3ccc(Cl)cc3)n(C[C@H](O)C(F)(F)F)c2=O)nn1-c1ncccc1Cl [Example 8A, 3-({3-(4-Chlorophenyl)-5-oxo-4-[(2S)-3,3,3-trifluoro-2-hydroxypropyl]-4,5-dihydro-1H-1,2,4-triazol-1-yl}methyl)-1-(3-chloropyridin-2-yl)-1H-1,2,4-triazole-5-carboxamide]",38.2,1.1,1.7,4,,,5.9,2.8
